In patent EP4707280A1, “1,4-CINEOLE DERIVATIVE AND INTERMEDIATE THEREOF, HERBICIDE CONTAINING SAID DERIVATIVE AS ACTIVE INGREDIENT, METHOD FOR USING HERBICIDE, AND METHOD FOR PREPARING AGROCHEMICAL COMPOSITION” (HOKKO CHEMICAL INDUSTRY CO., LTD., priority 2023, dated 2024):

How the values were obtained:
Type in all cases: in vivo
Digitaria ciliaris [1] = assay: Test Example 4: herbicidal effect test by stem and leaf treatment in upland field; conditions: 120 g per 10 ares, sprayed seven days after sowing, upland soil, 14 days after application; for inhibition at 1200 g/ha: Digitaria ciliaris, read-out: weed inhibition rate
Experimental: (§1) The present test was conducted in duplicate for each chemical concentration group, and the weed inhibition rate (%) was determined 14 days after chemical application using the following formula (Math. 1). [formula]
(§2) Pots with an area of 36 cm^2 were filled with upland soil (alluvial loam), twenty seeds each of weeds of Digitaria ciliaris, Echinochloa crus-galli, and Amaranthus viridis were uniformly mixed with the top 1 cm layer of soil and the surface was lightly pressed down. Seven days after sowing, an emulsifiable concentrate prepared according to Formulation Example 5 using the compound shown below was diluted with water, and the diluted solution was sprayed onto the soil surface at a rate of 100 liters per 10 ares. The amount of the active ingredient to be applied was equivalent to 120 g per 10 ares. Fourteen days after chemical application, the herbicidal effect was evaluated according to the same criteria as in Test Example 1.

Echinochloa crus-galli [2] = assay: as above; conditions: 120 g per 10 ares, sprayed seven days after sowing, upland soil, 14 days after application; for inhibition at 1200 g/ha: Echinochloa crus-galli, read-out: weed inhibition rate
Digitaria ciliaris [3] = assay: Test Example 3: herbicidal effect test by soil application in upland field; conditions: 120 g per 10 ares, sprayed one day after sowing, 14 days after application; for inhibition at 1200 g/ha: Digitaria ciliaris, read-out: weed inhibition rate
Experimental: as §1
as §2, with “crus-galli, Chenopodium album,” for “crus-galli,”, “One day” for “Seven days”

Echinochloa crus-galli [4] = assay: as above; conditions: 120 g per 10 ares, sprayed one day after sowing, 14 days after application; for inhibition at 1200 g/ha: Echinochloa crus-galli, read-out: weed inhibition rate
Experimental: as §1
as §2, with “crus-galli, Chenopodium album,” for “crus-galli,”, “One day” for “Seven days”

[5] = tested on: Echinochloa crus-galli var. formosensis; assay: Test Example 2: herbicidal effect test by application during growth period of paddy rice; conditions: 120 g per 10 ares, applied seven days after sowing, flooded pots, 14 days after application; for inhibition at 1200 g/ha: Echinochloa crus-galli, read-out: weed inhibition rate
Experimental: as §1
(§3) Wagner pots with an area of […] were filled with paddy soil, followed by addition of water and incorporation of chemical fertilizer (N:P:K = 16:16:16), after which puddling was performed. After that, seeds of Echinochloa crus-galli var. formosensis, broad-leaved weeds (Monochoria vaginalis), and Scirpus juncoides were sown at a depth of 0 cm to 1 cm, 30 seeds each. Immediately after sowing, the pots were flooded and a water depth of approximately 3 cm was maintained. Subsequent management was conducted in a glass greenhouse. Seven days after sowing, an emulsifiable concentrate prepared according to Formulation Example 5 using the compound shown below was diluted with water, and a specified amount of the diluted solution was applied by dropper. The amount of the active ingredient to be applied was equivalent to 120 g per 10 ares. The test was conducted in duplicate for each chemical concentration group, and the herbicidal effect was evaluated 14 days after chemical application using the same criteria as in Test Example 1.

[6] = tested on: Echinochloa crus-galli var. formosensis; assay: Test Example 1: herbicidal effect test by soil application in paddy rice; conditions: 120 g active ingredient per 10 ares, applied immediately after sowing, flooded pots, 14 days after application; for pest or weed control at 1200 g/ha: Echinochloa crus-galli, soil, 336 h, read-out: weed inhibition rate
Experimental: as §3, with “([…] Monochoria” for “(Monochoria”, “Immediately thereafter,” for “Seven days after sowing,”, “ares.” for “ares. The test was conducted in duplicate for each chemical concentration group, and the herbicidal effect was evaluated 14 days after chemical application using the same criteria as in Test Example 1.”

CCOC1C[C@]2(C)O[C@@]1(C(C)C)C[C@H]2OCc1ccccc1F (mixture of isomers) [1-916, (1S,2R,4R,SR)-5-ethoxy-2-[(2-fluorophenyl)methoxy]-1-methyl-4-isopropyl-7-oxabicyclo[2.2.1]heptane]
≥ 80%: inhibition at 1200 g/ha (Digitaria ciliaris [1]) | inhibition at 1200 g/ha (Echinochloa crus-galli [2])

CC(C)=CCO[C@H]1C[C@@]2(C(C)C)O[C@]1(C)CC2Br (mixture of isomers) [1-1007, (1R,2S,4S,SR)-5-bromo-1-methyl-2-(3-methylbut-2-enoxy)-4-isopropyl-7-oxabicyclo[2.2.1]heptane]
≥ 80%: inhibition at 1200 g/ha (Digitaria ciliaris [3]) | inhibition at 1200 g/ha (Echinochloa crus-galli [4]) | inhibition at 1200 g/ha [5] | inhibition at 1200 g/ha (Digitaria ciliaris [1]) | pest or weed control at 1200 g/ha [6] | inhibition at 1200 g/ha (Echinochloa crus-galli [2])

CC(C)[C@@]12C[C@H](OCc3ccccc3Cl)[C@@](C)(CC1Br)O2 (mixture of isomers) [1-1031, (1R,2S,4S,SR)-5-bromo-2-[(2-chlorophenyl)methoxy]-1-methyl-4-isopropyl-7-oxabicyclo[2.2.1]heptane]
≥ 80%: inhibition at 1200 g/ha (Digitaria ciliaris [3]) | inhibition at 1200 g/ha (Echinochloa crus-galli [4]) | inhibition at 1200 g/ha [5] | inhibition at 1200 g/ha (Digitaria ciliaris [1]) | pest or weed control at 1200 g/ha [6] | inhibition at 1200 g/ha (Echinochloa crus-galli [2])

CC(C)[C@@]12C[C@H](OCc3ccccc3)[C@@](C)(CC1I)O2 (mixture of isomers) [1-1081, (1R,2S,4S,SR)-5-iodo-1-methyl-2-phenylmethoxy-4-isopropyl-7-oxabicyclo[2.2.1]heptane]
≥ 80%: inhibition at 1200 g/ha (Digitaria ciliaris [3]) | inhibition at 1200 g/ha (Echinochloa crus-galli [4]) | inhibition at 1200 g/ha [5] | inhibition at 1200 g/ha (Digitaria ciliaris [1]) | pest or weed control at 1200 g/ha [6] | inhibition at 1200 g/ha (Echinochloa crus-galli [2])

CC(C)[C@]12C[C@@H](OCc3ccccc3F)[C@](C)(C[C@H]1C)O2 (racemic) [1-1597, (1SR,2RS,4RS,5RS)-2-[(2-fluorophenyl)methoxy]-1,5-dimethyl-4-isopropyl-7-oxabicyclo[2.2.1]heptane]
≥ 80%: inhibition at 1200 g/ha (Digitaria ciliaris [3]) | inhibition at 1200 g/ha (Echinochloa crus-galli [4]) | inhibition at 1200 g/ha [5] | inhibition at 1200 g/ha (Digitaria ciliaris [1]) | pest or weed control at 1200 g/ha [6] | inhibition at 1200 g/ha (Echinochloa crus-galli [2])

C=CCO[C@@H]1C[C@]2(C(C)C)O[C@@]1(C)C[C@@H]2Br [1-671, (1S,2R,4R,5S)-5-bromo-1-methyl-4-isopropyl-2-prop-2-enoxy-7-oxabicyclo[2.2.1]heptane]
≥ 80%: inhibition at 1200 g/ha (Echinochloa crus-galli [2])

C#CCO[C@@H]1C[C@]2(C(C)C)O[C@@]1(C)C[C@@H]2Br [1-673, (1S,2R,4R,5S)-5-bromo-1-methyl-4-isopropyl-2-prop-2-ynoxy-7-oxabicyclo[2.2.1]heptane]
≥ 80%: inhibition at 1200 g/ha [5] | pest or weed control at 1200 g/ha [6]

COCO[C@@H]1C[C@]2(C(C)C)O[C@@]1(C)C[C@@H]2Br [1-677, (1S,2R,4R,5S)-5-bromo-2-(methoxymethoxy)-1-methyl-4-isopropyl-7-oxabicyclo[2.2.1]heptane]
≥ 80%: inhibition at 1200 g/ha [5]

CC(C)[C@]12C[C@@H](OCc3cccc(Br)c3)[C@](C)(C[C@@H]1Br)O2 [1-695, (1S,2R,4R,5S)-5-bromo-2-[(3-bromophenyl)methoxy]-1-methyl-4-isopropyl-7-oxabicyclo[2.2.1]heptane]
≥ 80%: inhibition at 1200 g/ha (Digitaria ciliaris [3]) | inhibition at 1200 g/ha (Echinochloa crus-galli [4]) | inhibition at 1200 g/ha [5] | inhibition at 1200 g/ha (Digitaria ciliaris [1]) | pest or weed control at 1200 g/ha [6] | inhibition at 1200 g/ha (Echinochloa crus-galli [2])

CC(C)[C@]12C[C@@H](OCc3ccc(Br)cc3)[C@](C)(C[C@@H]1Br)O2 [1-696, (1S,2R,4R,5S)-5-bromo-2-[(4-bromophenyl)methoxy]-1-methyl-4-isopropyl-7-oxabicyclo[2.2.1]heptane]
≥ 80%: inhibition at 1200 g/ha (Digitaria ciliaris [3]) | inhibition at 1200 g/ha (Echinochloa crus-galli [4]) | inhibition at 1200 g/ha [5] | inhibition at 1200 g/ha (Digitaria ciliaris [1]) | pest or weed control at 1200 g/ha [6] | inhibition at 1200 g/ha (Echinochloa crus-galli [2])

CC(C)[C@]12C[C@@H](OCc3cccc(C(F)(F)F)c3)[C@](C)(C[C@@H]1Br)O2 [1-701, (1S,2R,4R,5S)-5-bromo-l-methyl-4-isopropyl-2-[[3-(trifluoromethyl)phenyl]methoxy]-7-oxabicyclo[2.2.1]heptane]
≥ 80%: weed inhibition rate (Digitaria ciliaris [3]) | weed inhibition rate (Echinochloa crus-galli [4]) | weed inhibition rate [5] | weed inhibition rate (Digitaria ciliaris [1]) | weed inhibition rate [6] | weed inhibition rate (Echinochloa crus-galli [2])

CC(C)[C@]12C[C@@H](OCc3ccc(C#N)cc3)[C@](C)(C[C@@H]1Br)O2 [1-705, 4-[[(1S,2R,4R,5S)-5-bromo-1-methyl-4-isopropyl-7-oxabicyclo[2.2.1]heptan-2-yl]oxymethyl]benzonitrile]
≥ 80%: inhibition at 1200 g/ha (Digitaria ciliaris [3]) | inhibition at 1200 g/ha (Echinochloa crus-galli [4]) | inhibition at 1200 g/ha [5] | inhibition at 1200 g/ha (Digitaria ciliaris [1]) | pest or weed control at 1200 g/ha [6] | inhibition at 1200 g/ha (Echinochloa crus-galli [2])

CC(C)[C@]12C[C@@H](OCc3ccc4ccccc4c3)[C@](C)(C[C@@H]1Br)O2 [1-716, (1S,2R,4R,5S)-5-bromo-1-methyl-2-(naphthalen-2-ylmethoxy)-4-isopropyl-7-oxabicyclo[2.2.1]heptane]
≥ 80%: inhibition at 1200 g/ha [5] | pest or weed control at 1200 g/ha [6]

Cc1ccc(C2C[C@]3(C)O[C@@]2(C(C)C)C[C@H]3OCc2ccccc2F)cc1 (stereo partly drawn) [1-927, (1S,2R,4R)-2-((2-fluorobenzyl)oxy)-4-isopropyl-1-methyl-5-(p-tolyl)-7-oxabicyclo[2.2.1]heptane]
≥ 80%: inhibition at 1200 g/ha (Digitaria ciliaris [3]) | inhibition at 1200 g/ha (Echinochloa crus-galli [4])

CC(C)[C@@]12C[C@H](OCc3ccccc3)[C@@](C)(C[C@H]1Br)O2 [1-1015, (1R,2S,4S,5R)-5-bromo-1-methyl-2-phenylmethoxy-4-isopropyl-7-oxabicyclo[2.2.1]heptane]
≥ 80%: inhibition at 1200 g/ha (Digitaria ciliaris [3]) | inhibition at 1200 g/ha (Echinochloa crus-galli [4]) | inhibition at 1200 g/ha [5] | inhibition at 1200 g/ha (Digitaria ciliaris [1]) | pest or weed control at 1200 g/ha [6] | inhibition at 1200 g/ha (Echinochloa crus-galli [2])

Cc1ccccc1CO[C@H]1C[C@@]2(C(C)C)O[C@]1(C)C[C@H]2Br [1-1016, (1R,2S,4S,5R)-5-bromo-1-methyl-2-[(2-methylphenyl)methoxy]-4-isopropyl-7-oxabicyclo[2.2.1]heptane]
≥ 80%: inhibition at 1200 g/ha (Digitaria ciliaris [3]) | inhibition at 1200 g/ha (Echinochloa crus-galli [4]) | inhibition at 1200 g/ha [5] | inhibition at 1200 g/ha (Digitaria ciliaris [1]) | pest or weed control at 1200 g/ha [6] | inhibition at 1200 g/ha (Echinochloa crus-galli [2])

COc1ccccc1CO[C@H]1C[C@@]2(C(C)C)O[C@]1(C)C[C@H]2Br [1-1022, (1R,2S,4S,5R)-5-bromo-2-[(2-methoxyphenyl)methoxy]-1-methyl-4-isopropyl-7-oxabicyclo[2.2.1]heptane]
≥ 80%: inhibition at 1200 g/ha (Digitaria ciliaris [3]) | inhibition at 1200 g/ha (Echinochloa crus-galli [4]) | inhibition at 1200 g/ha [5] | inhibition at 1200 g/ha (Digitaria ciliaris [1]) | pest or weed control at 1200 g/ha [6] | inhibition at 1200 g/ha (Echinochloa crus-galli [2])

COc1cccc(CO[C@@H]2C[C@]3(C(C)C)O[C@@]2(C)CC3=O)c1 [2-347, (1R,4S,5R)-1-isopropyl-5-((3-methoxybenzyl)oxy)-4-methyl-7-oxabicyclo[2.2.1]heptan-2-one]
≥ 80%: inhibition at 1200 g/ha (Echinochloa crus-galli [4]) | pest or weed control at 1200 g/ha [6]
